Results published in patent US8884013B2, “Polymorphs of Dasatinib, preparation methods and pharmaceutical compositions thereof” (Nan Jing Cavendish Bio-Engineering Technology Co., Ltd., priority 2010, dated 2014).

Key:
Type in all cases: physicochemical
[1] = Observation test of long-term sample storage
[2] = Comparative test on stability: destruction experiment, related substances by HPLC
Description: The methods of destruction experiment of the Polymorph I and II of this invention (hereinafter referred to as ‘Polymorph I’ and ‘Polymorph II’) contrasting with the Polymorph A of Dasatinib prepared by the method in CN200580011916.6 (hereinafter referred to as ‘916.6 Polymorph A’) and results of stability are followed:
Oxidation destruction: 50 mg of sample weighted accurately was added into measuring flask of 100 mL, and 10 mL 30% H2O2 was added. After standing at room temperature for 2 hour, the mixture was diluted with mobile phase to scale and shook to be homogeneous, and determined by HPLC.
Acid destruction: 50 mg of sample weighted accurately was added into measuring flask of 100 mL, and 10 mL 1 mol/L HCl solution was added. After standing at 40° C. for 1 hour, an equal amount of 1 mol/L NaOH solution was added for neutralization. Then the mixture was diluted with mobile phase to scale and shook to be homogeneous, and determined by HPLC.
Alkali destruction: 50 mg of sample weighted accurately was added into measuring flask of 100 mL, and 10 mL 1 mol/L NaOH solution was added. After standing at 40° C. for 1 hour, an equal amount of 1 mol/L HCl solution was added for neutralization. Then the mixture was diluted with mobile phase to scale and shook to be homogeneous, and determined by HPLC.
Illumination destruction: 50 mg of sample weighted accurately was added into measuring flask of 100 mL, dissolved and diluted with mobile phase to be the solution containing 0.5 mg Dasatinib per milliliter. After standing under illumination of 4000 lx for 6 hour, the mixture was determined by HPLC.
High temperature destruction: 50 mg of sample weighted accurately was added into measuring flask of 100 mL, dissolved and diluted with mobile phase to be the solution containing 0.5 mg Dasatinib per milliliter. After standing in homothermal water bath of 60° C. for 4 hour, the mixture was cooled and then determined by HPLC.
Related Substances Determination
HPLC conditions and system applicability: octadecylsilane bonded silica as the filler; 0.05 mol/L of potassium dihydrogen phosphate (adjusted to pH 2.5 by phosphoric acid, 0.2% triethylamine)-methanol (45:55) as the mobile phase; detection wavelength was 230 nm; the number of theoretical plates should be not less than 2000, calculated according to the peak of Dasatinib. The resolution of the peak of Dasatinib from the peaks of adjacent impurities should meet requirements.
Determination method: sample was dissolved in mobile phase to be the solution containing 0.5 mg per milliliter. 20 μL of such solution was injected into liquid chromatograph, and chromatogram was recorded until the sixfold retention time of major component peak. If there were impurities peaks in the chromatogram of sample solution, total impurities and any single impurity were calculated by normalization method on the basis of peak area.

[3] = Loss and regain of crystal water (sealed with strong dehydrating agent, then air)
[4] = 1 mol/L acid destruction (HCl, 40° C., 1 hour)
[5] = 1 mol/L alkali destruction (NaOH, 40° C., 1 hour)
[6] = high temperature destruction (60° C. water bath, 4 hour, in solution)
[7] = illumination destruction (4000 lx, 6 hour, in solution)
[8] = oxidation destruction (30% H2O2, room temperature, 2 hour)

SMILES: Cc1nc(Nc2ncc(C(=O)Nc3c(C)cccc3Cl)s2)cc(N2CCN(CCO)CC2)n1 [Polymorph I, N-(2-chloro-6-methylphenyl)-2-[[6-[4-(2-hydroxyethyl)-1-piperazinyl]-2-methyl-4-pyrimidyl]amino]-5-thiazolformamide]
- Change of content (in words) [1]: decreased slightly
- Change of related substances (in words) [1]: increased slightly
- Crystal transformation [1]: not found
- Impurity tR4.102 ([2]; 1 mol/L acid destruction): 0.02%
- Impurity tR4.987 ([2]; 1 mol/L acid destruction): 0.01%
- Impurity tR5.603 ([2]; 1 mol/L acid destruction): 0.02%
- Total impurities [2, 4]: 0.06%
- Impurity tR4.130 ([2]; 1 mol/L alkali destruction): 0.02%
- Impurity tR5.089 ([2]; 1 mol/L alkali destruction): 0.01%
- Impurity tR5.501 ([2]; 1 mol/L alkali destruction): 0.02%
- Total impurities [2, 5]: 0.08%
- Impurity tR4.113 ([2]; before destruction): 0.02%
- Impurity tR5.037 ([2]; before destruction): 0.01%
- Impurity tR5.535 ([2]; before destruction): 0.03%
- Total impurities ([2]; before destruction): 0.07%
- Impurity tR3.569 ([2]; high temperature destruction): 0.01%
- Impurity tR4.120 ([2]; high temperature destruction): 0.02%
- Impurity tR5.088 ([2]; high temperature destruction): 0.01%
- Impurity tR5.520 ([2]; high temperature destruction): 0.02%
- Total impurities [2, 6]: 0.05%
- Impurity tR2.199 ([2]; illumination destruction): 0.04%
- Impurity tR2.527 ([2]; illumination destruction): 0.06%
- Impurity tR2.911 ([2]; illumination destruction): 0.33%
- Impurity tR3.734 ([2]; illumination destruction): 0.11%
- Impurity tR4.119 ([2]; illumination destruction): 0.04%
- Impurity tR4.585 ([2]; illumination destruction): 0.08%
- Impurity tR5.089 ([2]; illumination destruction): 0.03%
- Impurity tR5.502 ([2]; illumination destruction): 0.14%
- Impurity tR5.996 ([2]; illumination destruction): 0.08%
- Impurity tR10.096 ([2]; illumination destruction): 0.66%
- Total impurities [2, 7]: 1.28%
- Impurity tR3.719 ([2]; oxidation destruction): 0.06%
- Impurity tR4.108 ([2]; oxidation destruction): 0.02%
- Impurity tR4.568 ([2]; oxidation destruction): 0.04%
- Impurity tR5.090 ([2]; oxidation destruction): 0.01%
- Impurity tR5.508 ([2]; oxidation destruction): 0.06%
- Impurity tR6.467 ([2]; oxidation destruction): 0.05%
- Impurity tR9.476 ([2]; oxidation destruction): 1.058%
- Total impurities [2, 8]: 1.32%
- Behaviour in a sealed surrounding with strong dehydrating agent ([3]; allochroic silicagel, phosphorus pentoxide etc.): lose crystal water (partly to all) step by step
- Behaviour of the polymorph losing part crystal moisture in air environment ([3]; put in air environment): return to the Polymorph I with one crystal water step by step

SMILES: Cc1nc(Nc2ncc(C(=O)Nc3c(C)cccc3Cl)s2)cc(N2CCN(CCO)CC2)n1 [Polymorph II, N-(2-chloro-6-methylphenyl)-2-[[6-[4-(2-hydroxyethyl)-1-piperazinyl]-2-methyl-4-pyrimidyl]amino]-5-thiazolformamide]
- Impurity tR4.101 ([2]; 1 mol/L acid destruction): 0.01%
- Impurity tR4.993 ([2]; 1 mol/L acid destruction): 0.01%
- Impurity tR5.604 ([2]; 1 mol/L acid destruction): 0.02%
- Total impurities [2, 4]: 0.06%
- Impurity tR3.580 ([2]; 1 mol/L alkali destruction): 0.01%
- Impurity tR4.131 ([2]; 1 mol/L alkali destruction): 0.02%
- Impurity tR5.092 ([2]; 1 mol/L alkali destruction): 0.01%
- Impurity tR5.512 ([2]; 1 mol/L alkali destruction): 0.02%
- Impurity tR9.424 ([2]; 1 mol/L alkali destruction): 0.01%
- Total impurities [2, 5]: 0.08%
- Impurity tR4.114 ([2]; before destruction): 0.02%
- Impurity tR5.049 ([2]; before destruction): 0.01%
- Impurity tR5.473 ([2]; before destruction): 0.02%
- Total impurities ([2]; before destruction): 0.06%
- Impurity tR3.567 ([2]; high temperature destruction): 0.01%
- Impurity tR4.117 ([2]; high temperature destruction): 0.01%
- Impurity tR5.085 ([2]; high temperature destruction): 0.01%
- Impurity tR5.507 ([2]; high temperature destruction): 0.02%
- Total impurities [2, 6]: 0.06%
- Impurity tR2.197 ([2]; illumination destruction): 0.05%
- Impurity tR2.526 ([2]; illumination destruction): 0.05%
- Impurity tR2.910 ([2]; illumination destruction): 0.02%
- Impurity tR3.733 ([2]; illumination destruction): 0.11%
- Impurity tR4.116 ([2]; illumination destruction): 0.04%
- Impurity tR4.582 ([2]; illumination destruction): 0.07%
- Impurity tR5.084 ([2]; illumination destruction): 0.02%
- Impurity tR5.496 ([2]; illumination destruction): 0.15%
- Impurity tR5.990 ([2]; illumination destruction): 0.06%
- Impurity tR10.084 ([2]; illumination destruction): 0.78%
- Total impurities [2, 7]: 1.36%
- Impurity tR4.393 ([2]; oxidation destruction): 0.02%
- Impurity tR4.567 ([2]; oxidation destruction): 0.03%
- Impurity tR5.090 ([2]; oxidation destruction): 0.01%
- Impurity tR5.510 ([2]; oxidation destruction): 0.07%
- Impurity tR6.468 ([2]; oxidation destruction): 0.04%
- Impurity tR9.486 ([2]; oxidation destruction): 1.00%
- Total impurities [2, 8]: 1.19%
